Source: US12377077B2, “Methods and formulations to treat mitochondrial dysfunction” (The Board of Trustees of the Leland Stanford Junior …, priority 2018, dated 2025)
“Also recorded” adds a separate entry of the source.

Legend:
[1] = test system: COX10-deficient fibroblasts; assay: Cell viability by Calcein AM in mitochondrial stressor media; assay type: cell-based, human; details: FIG. 2B
Experimental: (§1) Fibroblasts previously derived from four patients with primary mitochondrial disease (Surf1, Complex I, Cox10, Polg), three patients with NGLY1 deficiency and four normal controls were used for the study. All samples were obtained with informed consent and approved by the Stanford IRB. Fibroblasts were maintained in DMEM medium containing 8.3 mM glucose and supplemented with 10% fetal bovine serum (FBS)(Fisher Scientific), 1% Penicillin-Streptomycin (10,000 U/mL)(Life Technologies), 1% glutaMAX (Life Technologies), 1% uridine (5 mg/ml) and 1% pyruvate (11 mg/ml) at 37° C., 5% CO2. For the screening of various compounds, 15×10^3 cells/500 ul media were seeded in quadruplets on 24 well microtiter plates. The following day, the medium was removed, wells washed with PBS and replaced with a mitochondrial stressor media containing DMEM, 1% Penicillin-Streptomycin (10,000 U/mL)(Life Technologies), 10% FCS (Fisher Scientific), 1 mM Galactose (Sigma Aldrich), and 25 μM sodium azide with or without the following compounds: 1 mM AICAR (Medchem Express), 1 mM Metformin (Sigma Aldrich), 100 μM PT1 (Santa Cruz Biotechnology), 100 μ[…] Express). Following treatment with the various compounds, tissue cultures were analyzed for growth, oxygen consumption rate, and ATP levels. Methods: Cell growth was measured by a fluorometric method using Calcein AM (Anaspec). Mitochondrial stressor media was removed, wells washed with PBS and then incubated with 500 ul/well of 800 nM Calcein AM in PBS for 30 min at 37 C, 5% CO2. Cell viability was measured by values obtained using a 485 nm excitation with the Flouroskan Ascent Microplate Fluorometer (Thermo Scientific).

[2] = test system: POLG-deficient fibroblasts; assay: as above; assay type: cell-based, human; details: FIG. 2D
Experimental: as §1

[3] = test system: SURF1-deficient fibroblasts; assay: as above; assay type: cell-based, human; details: for cellular viability, dose dependent manner: SURF1 deficient fibroblasts, FIG. 2F
Experimental: as §1

[4] = test system: CI-deficient fibroblasts; assay: as above; assay type: cell-based, human; details: FIG. 2C
Experimental: Fibroblasts previously derived from four patients with primary mitochondrial disease (Surf1, Complex I, Cox10, Polg), three patients with NGLY1 deficiency and four normal controls were used for the study. All samples were obtained with informed consent and approved by the Stanford IRB. Fibroblasts were maintained in DMEM medium containing 8.3 mM glucose and supplemented with 10% fetal bovine serum (FBS)(Fisher Scientific), 1% Penicillin-Streptomycin (10,000 U/mL)(Life Technologies), 1% glutaMAX (Life Technologies), 1% uridine (5 mg/ml) and 1% pyruvate (11 mg/ml) at 37° C., 5% CO2.
For the screening of various compounds, 15×10^3 cells/500 ul media were seeded in quadruplets on 24 well microtiter plates. The following day, the medium was removed, wells washed with PBS and replaced with a mitochondrial stressor media containing DMEM, 1% Penicillin-Streptomycin (10,000 U/mL)(Life Technologies), 10% FCS (Fisher Scientific), 1 mM Galactose (Sigma Aldrich), and 25 μM sodium azide with or without the following compounds: 1 mM AICAR (Medchem Express), 1 mM Metformin (Sigma Aldrich), 100 μM PT1 (Santa Cruz Biotechnology), 100 μM A-769662 (Medchem Express), 100 μM C24 (Medchem Express). Following treatment with the various compounds, tissue cultures were analyzed for growth, oxygen consumption rate, and ATP levels.
Methods: Cell growth was measured by a fluorometric method using Calcein AM (Anaspec). Mitochondrial stressor media was removed, wells washed with PBS and then incubated with 500 ul/well of 800 nM Calcein AM in PBS for 30 min at 37 C, 5% CO2. Cell viability was measured by values obtained using a 485 nm excitation with the Flouroskan Ascent Microplate Fluorometer (Thermo Scientific).

[5] = test system: phosphorylated ACC (pACC); assay: pACC western blot in mitochondrial-defective patient cells; assay type: cell-based, human; details: mitochondrial-defective patient cells vs DMSO; FIG. 16A
[6] = test system: AMPK; assay: AMPK activity used in determining EC50 (FIG. 16B); assay type: biochemical
[7] = test system: SURF1-deficient fibroblasts; assay: Cellular morphology by phase-contrast microscopy; assay type: cell-based, human; details: vs DMSO
Text: Fibroblasts in tissue culture were visualized by phase-contrast microscopy with a Leica DM IRB microscope at ×10 magnification, and images were taken with the Hamamatsu ORCA-ER camera.

[8] = test system: Sco2 deficient mice; assay: Ocular structure by optical coherence tomography (OCT) in Sco2 mice; assay type: in vivo; details: for thickness of the retinal nerve fiber layer (RNFL): 10 mg/kg once daily oral gavage
Text: (§2) Methods: To examine the effects of AMPK agonists on in vivo systems with mitochondrial dysfunction, MK8722 was used to treat a mouse model of mitochondrial disease. These mice have mitochondrial Complex IV deficiency caused by deficient cytochrome C oxidase assembly protein, SCO2, and harbor a Sco2 knock-out (KO) allele and a Sco2 knock-in (KI) allele expressing an E→K mutation at position 129 (E129K). The E129K mutation corresponds to the E140K mutation found in almost all human SCO2-mutated patients. (See e.g., Yang et al, Analysis of mouse models of cytochrome c oxidase deficiency owing to mutations in Sco2. Hum Mol Genet. 2010 Jan. 1; 19(1):170-80; the disclosure of which is incorporated by reference herein in its entirety.) The predominant phenotype of Sco2 deficient mice is reduced locomotor function and ocular defects, both common findings in patients with primary mitochondrial disease. The Sco2 mice were grouped into four treatment groups: Sco2 KI/KO+MK8722, Sco2 KI/KO+DMSO (vehicle), Control KI/WT+MK8722, Control KI/WT+DMSO with 7-9 mice per group. 1.5-month old Sco2 mice were treated once daily by oral gavage with MK8722 (10 mg/kg) or vehicle (DMSO) for 14 weeks. Locomotor function was evaluated using the activity chamber, rotarod, and hanging-wire tests and ocular structure using optical coherence tomography (OCT).

[9] = test system: Sco2 deficient mice; assay: Activity chamber test in Sco2 mice; assay type: in vivo
Text: as §2

[10] = test system: Sco2 deficient mice; assay: Rotarod running test in Sco2 mice; assay type: in vivo; details: KO/KI mice; vehicle 176.1 sec
Text: as §2

[11] = test system: Sco2 deficient mice; assay: Hanging wire test in Sco2 mice; assay type: in vivo; details: KO/KI mice; vehicle 173.2 sec
Text: as §2

[12] = test system: mitochondrial cytochrome C oxidase (CytoC) and succinate dehydrogenase (SDH) activities; assay: Histological staining of skeletal muscle for mitochondrial enzyme activities; assay type: in vivo; details: Sco2 KI/KO mice vs vehicle, FIG. 11D
Text: as §2

[13] = test system: glycogen content; assay: Histological assessment of glycogen in skeletal muscle; assay type: in vivo; details: Sco2 KI/KO mice vs untreated; FIG. 11E
Text: as §2

[14] = test system: phosphorylated ACC (pACC); assay: pACC western blot in skeletal muscle of Sco2 KI/KO mice; assay type: in vivo; details: KI/KO mice vs vehicle; FIGS. 11F-11G
Text: as §2

NC(=O)c1ncn([C@@H]2O[C@H](CO)[C@@H](O)[C@H]2O)c1N [AICAR]
survival / viability [1]: does not improve cell viability; also recorded: did not improve survival
survival / viability [2]: does not improve cell viability; also recorded: did not improve survival
mean cell survival increased ([3]; SURF1 cells, vs untreated control treated with PBS): 57%
survival / viability [4]: does not improve cell viability; also recorded: did not improve survival

N#Cc1c(O)c2c(-c3ccc(-c4ccccc4O)cc3)csc2[nH]c1=O [Compound A-769662]
survival / viability [2]: improved survival
survival / viability [4]: improved survival

O=C(O)c1c[nH]c2cc(Cl)c(-c3ccc(C4(O)CCC4)s3)cc12 [EV8016, 6-chloro-5-(5-(1-hydroxycyclobutyl)thiophen-2-yl)-1H-indole-3-carboxylic acid]
ACC phosphorylation (AMPK activation) [5]: capable of activating AMPK
EC50 [6]: 0.232 µM

O[C@@H]1CO[C@H]2[C@@H]1OC[C@H]2Oc1nc2nc(-c3ccc(-c4ccccc4)cc3)c(Cl)cc2[nH]1 [MK-8722]
cellular viability, dose dependent manner [3]: increasing levels of cellular viability; also recorded: improved the viability
cellular morphology [7]: improved cellular morphology; also recorded: improved cell morphology
thickness of the retinal nerve fiber layer (RNFL) ([8]; KI/WT mice, vehicle 72.7 μm): 74.7 μm
thickness of the retinal nerve fiber layer (RNFL) ([8]; Sco2 KI/KO mice, vehicle 74.1 μm): 77 μm
retinal thickness, degradation ([8]; treated vs vehicle (VEH) mice, FIG. 9E): less degradation
distance moved in the activity chamber ([9]; KO/KI mice, 8 weeks of treatment, vehicle 1516.7 cm): 2337.8 cm
activity in activity chamber ([9]; knock-out/knock-in mice, FIG. 11A): returns to levels comparable with knock-in/wild-type mice
rotarod running time [10]: 248.1 s
hanging wire time [11]: 312.5 s
intensity of histological stains indicative of CytoC and SDH activities [12]: increased
glycogen content of skeletal muscle [13]: increased glycogen content
ACC phosphorylation in skeletal muscle [14]: increased phosphorylation of ACC; also recorded: increase in ACC phosphorylation

OCC1(c2ccc(-c3cc4nc(O[C@@H]5CO[C@H]6[C@@H]5OC[C@H]6O)[nH]c4cc3Cl)cc2)CC1 [PF-739]
cellular viability, dose dependent manner [3]: increasing levels of cellular viability; also recorded: improved the viability
cellular morphology [7]: improved cellular morphology; also recorded: improved cell morphology

O=C(O)c1c[nH]c2cc(Cl)c(-c3ccc(C4(O)CCC4)cc3)cc12 [PF-06409577]
cellular viability, dose dependent manner [3]: increasing levels of cellular viability
cellular viability, dose dependent manner ([3]; listed as PF-04609577): improved the viability
cellular morphology [7]: improved cellular morphology
cellular morphology ([7]; listed as PF-04609577): improved cell morphology

Cc1ccc(OCCSc2ncccn2)c(Br)c1 [ZLN024]
survival / viability [4]: improved survival
